{"source": "patent US9714239B2", "about": "“N-phenyl-lactam derivatives capable of stimulating neurogenesis and their use in the treatment of neurological disorders” (Hoffmann-La Roche Inc., priority 2014, dated 2017)", "system": "human embryonic stem cell derived neural stem cells (NSCs)", "experiment": "Neurogenesis assay: neural stem cell proliferation assay", "details": "96 h, compound concentration at which 150% activity of control (100%) is reached, increase in cells based on ATP levels (CellTiterGlo), 4 days incubation, dose response 8 μM to 8 nM"}
{"smiles": "COc1cc(N2CCN(Cc3ccccc3F)C2=O)ccc1-c1cn[nH]c1", "note": "[Example 33, 1-[(2-Fluorophenyl)methyl]-3-[3-methoxy-4-(1H-pyrazol-4-yl)phenyl]imidazolidin-2-one]", "values": [{"measurement": "EC (150% of control)", "value": 0.225, "unit": "µM"}]}
{"smiles": "COc1cc(N2CCC(c3ccccc3OC)C2=O)ccc1-c1cnco1", "note": "(stereo not shown) [Example 41, 1-[3-Methoxy-4-(1,3-oxazol-5-yl)phenyl]-3-(2-methoxyphenyl)pyrrolidin-2-one]", "values": [{"measurement": "EC (150% of control)", "value": 2.91, "unit": "µM"}]}
{"smiles": "O=C1C(c2cccc(Cl)c2)CCN1c1ccc(-c2cn[nH]c2)cc1", "note": "(stereo not shown) [Example 17, 3-(3-Chlorophenyl)-1-[4-(1H-pyrazol-4-yl)phenyl]pyrrolidin-2-one]", "values": [{"measurement": "EC (150% of control)", "value": 0.23, "unit": "µM"}]}
{"smiles": "COc1cc(N2CCN(Cc3ccccc3Cl)C2=O)ccc1-c1cn[nH]c1", "note": "[Example 10, 1-[(2-Chlorophenyl)methyl]-3-[3-methoxy-4-(1H-pyrazol-4-yl)phenyl]imidazolidin-2-one]", "values": [{"measurement": "EC (150% of control)", "value": 0.27, "unit": "µM"}]}
